Results published in patent US20040023994A1 (priority 2002, published 2004).
Where two headings read alike, the source gives them in different places.

Columns and labels:
BT-549 = conditions: BT-549, Breast, NCI database, cited from earlier work; for CC50: read-out: LC50 (the source's name)
OVCAR-3 = conditions: OVCAR-3, Ovarian, NCI database, cited from earlier work; for CC50: read-out: LC50 (the source's name)
OVCAR-4 [1] = conditions: OVCAR-4, Ovarian, NCI database, cited from earlier work; for CC50: read-out: LC50 (the source's name)
PC-3 = conditions: PC-3, Prostate, NCI database, cited from earlier work; for CC50: read-out: LC50 (the source's name)
DU-145 = conditions: DU-145, Prostate, NCI database, cited from earlier work; for CC50: read-out: LC50 (the source's name)
COLO 205 = conditions: COLO 205, Colon, NCI database, cited from earlier work; for CC50: read-out: LC50 (the source's name)
HCT-116 = conditions: HCT-116, Colon, NCI database, cited from earlier work; for CC50: read-out: LC50 (the source's name)
HT29 = conditions: HT29, Colon, NCI database, cited from earlier work; for CC50: read-out: LC50 (the source's name)
KM12 = conditions: KM12, Colon, NCI database, cited from earlier work; for CC50: read-out: LC50 (the source's name)
NCI-H460 = conditions: NCI-H460, Non-Small Cell Lung, NCI database, cited from earlier work; for CC50: read-out: LC50 (the source's name)
SF-295 = conditions: SF-295, CNS, NCI database, cited from earlier work; for CC50: read-out: LC50 (the source's name)
CCRF-CEM = conditions: Leukemia, NCI database, cited from earlier work; for CC50: read-out: LC50 (the source's name)
K-562 = conditions: K-562, Leukemia, NCI database, cited from earlier work; for CC50: read-out: LC50 (the source's name)
RPMI-8226 = conditions: RPMI-8226, Leukemia, NCI database, cited from earlier work; for CC50: read-out: LC50 (the source's name)
SR = conditions: Leukemia, NCI database, cited from earlier work; for CC50: read-out: LC50 (the source's name)
[2] = cited from earlier work
MDA-N = format: cell-based; conditions: Breast, 48 h
NCI-H23 = format: cell-based; conditions: NCI-H23, Non-Small Cell Lung, 48 h
MDA-MB-231/ATCC = conditions: for CC50: read-out: LC50
HS 578T = conditions: 48 h; for CC50: read-out: LC50
OVCAR-4 [3] = conditions: for CC50: read-out: LC50
OVCAR-8 = conditions: for CC50: read-out: LC50
SK-OV-3 = conditions: for CC50: read-out: LC50
HCT-15 = conditions: for CC50: read-out: LC50
UO-31 = conditions: for CC50: read-out: LC50
SK-MEL-2 = conditions: for CC50: read-out: LC50
SK-MEL-5 = conditions: for CC50: read-out: LC50
[4] = Homo sapiens, read-out: LC50 (the source's name)

For `Sc1ncnc2nc[nH]c12` [6-MP, 6-mercaptopurine], the GI50 (BT-549) is given as over 100 µM, the TGI (BT-549) is given as over 100 µM and the CC50 (BT-549) is given as over 100 µM. For the same compound, the GI50 (OVCAR-3) was 710 nM, the TGI (OVCAR-3) was over 100 µM and the CC50 (OVCAR-3) was over 100 µM. The GI50 (OVCAR-4 [1]) was 7.11 µM, the TGI (OVCAR-4 [1]) was over 100 µM and the CC50 (OVCAR-4 [1]) was over 100 µM. The GI50 (PC-3) was 3810 nM, the TGI (PC-3) was over 100 µM and the CC50 (PC-3) was over 100 µM. The GI50 (DU-145) was 1730 nM, the TGI (DU-145) was over 100 µM and the CC50 (DU-145) was over 100 µM. The GI50 (COLO 205) was 4.68 µM, the TGI (COLO 205) was over 100 µM and the CC50 (COLO 205) was over 100 µM. The TGI (HCT-116) was over 100 µM, the CC50 (HCT-116) was over 100 µM and the GI50 (HT29) was 3970 nM. For the same compound, the TGI (HT29) was over 100 µM, the CC50 (HT29) was over 100 µM and the GI50 (KM12) was 7.31 µM. The TGI (KM12) was over 100 µM, the CC50 (KM12) was over 100 µM and the GI50 (NCI-H460) was 5.6 µM. The TGI (NCI-H460) was over 100 µM, the CC50 (NCI-H460) was over 100 µM and the GI50 (SF-295) was 5.36 µM. The TGI (SF-295) was over 100 µM, the CC50 (SF-295) was over 100 µM and the CC50 (CCRF-CEM) was over 100 µM. The GI50 (CCRF-CEM) was 1220 nM, the TGI (CCRF-CEM) was over 100 µM and the GI50 (K-562) was 350 nM. The TGI (K-562) was over 100 µM, the CC50 (K-562) was over 100 µM and the GI50 (RPMI-8226) was 1750 nM. For the same compound, the TGI (RPMI-8226) was over 100 µM, the CC50 (RPMI-8226) was over 100 µM and the CC50 (SR) was over 100 µM. The GI50 (SR) was 1270 nM, the TGI (SR) was over 100 µM and the “dose absorbed after oral administration” value [2] was at most 37%.

For `Nc1nc2nc[nH]c2c(=S)[nH]1` [6-TG, 6-thioguanine], the GI50 (BT-549) is listed as 3.59 µM, the TGI (BT-549) is listed as over 100 µM and the CC50 (BT-549) is listed as over 100 µM. For the same compound, the GI50 (OVCAR-3) was 710 nM, the TGI (OVCAR-3) was 6.68 µM and the CC50 (OVCAR-3) was over 100 µM. For the same compound, the GI50 (OVCAR-4 [1]) was 1.49 µM, the TGI (OVCAR-4 [1]) was 99.5 µM and the CC50 (OVCAR-4 [1]) was over 100 µM. For the same compound, the GI50 (PC-3) was 1770 nM, the TGI (PC-3) was over 100 µM and the CC50 (PC-3) was over 100 µM. For the same compound, the GI50 (DU-145) was 780 nM, the TGI (DU-145) was over 100 µM and the CC50 (DU-145) was over 100 µM. The GI50 (COLO 205) was 1.67 µM, the TGI (COLO 205) was 8.75 µM and the CC50 (COLO 205) was 34.5 µM. The GI50 (HCT-116) was 530 nM, the TGI (HCT-116) was 16.2 µM and the CC50 (HCT-116) was over 100 µM. For the same compound, the GI50 (HT29) was 1130 nM, the TGI (HT29) was over 100 µM and the CC50 (HT29) was over 100 µM. For the same compound, the GI50 (KM12) was 1.72 µM, the TGI (KM12) was 31.5 µM and the CC50 (KM12) was over 100 µM. For the same compound, the GI50 (NCI-H460) was 0.66 µM, the TGI (NCI-H460) was 20.0 µM and the CC50 (NCI-H460) was over 100 µM. For the same compound, the GI50 (SF-295) was 1.02 µM, the TGI (SF-295) was over 100 µM and the CC50 (SF-295) was over 100 µM. For the same compound, the CC50 (CCRF-CEM) was over 100 µM, the GI50 (CCRF-CEM) was 150 nM and the TGI (CCRF-CEM) was 25.4 µM. For the same compound, the GI50 (K-562) was 400 nM, the TGI (K-562) was 70.8 µM and the CC50 (K-562) was over 100 µM. The GI50 (RPMI-8226) was 390 nM, the TGI (RPMI-8226) was 20.9 µM and the CC50 (RPMI-8226) was over 100 µM. The CC50 (SR) was over 100 µM, the GI50 (SR) was 190 nM and the TGI (SR) was 17.9 µM. For the same compound, the “dose absorbed after oral administration” value [2] was “up to 46%”.

For `CC(=O)C=CSc1ncnc2nc[nH]c12` [cis-AVTP, 6-(2-acetylvinylthio) purine], the TGI (MDA-N) was 4.48 µM, the GI50 (MDA-N; Homo sapiens) was 550 nM and the CC50 (MDA-N; [4]) was over 100 µM. The GI50 (NCI-H23; Homo sapiens) was 1480 nM, the CC50 (NCI-H23; [4]) was 27.8 µM and the TGI (NCI-H23) was 4.58 µM. It also gave a GI50 (MDA-MB-231/ATCC; Homo sapiens, MDA-MB-231, 48 h) of 1270 nM, a CC50 (MDA-MB-231/ATCC; Homo sapiens, MDA-MB-231, 48 h) of over 100 µM and a TGI (MDA-MB-231/ATCC; MDA-MB-231/ATCC, Breast, 48 h) of 4.56 µM. For the same compound, the TGI (HS 578T; HS 578T, Breast) was 8.79 µM, the GI50 (HS 578T; Homo sapiens, Hs-578T) was 460 nM and the CC50 (HS 578T; Homo sapiens, Hs-578T) was over 100 µM. For the same compound, the GI50 (OVCAR-4 [3]; Homo sapiens, OVCAR-4, 48 h) was 510 nM, the CC50 (OVCAR-4 [3]; Homo sapiens, OVCAR-4, 48 h) was 25.6 µM and the TGI (OVCAR-4 [3]; OVCAR-4, Ovarian, 48 h) was 4.06 µM. For the same compound, the GI50 (OVCAR-8; Homo sapiens, OVCAR-8, 48 h) was 1530 nM, the CC50 (OVCAR-8; Homo sapiens, OVCAR-8, 48 h) was over 100 µM and the TGI (OVCAR-8; OVCAR-8, Ovarian, 48 h) was 5.93 µM. For the same compound, the GI50 (SK-OV-3; Homo sapiens, SK-OV-3, 48 h) was 110 nM, the CC50 (SK-OV-3; Homo sapiens, SK-OV-3, 48 h) was 33.3 µM and the TGI (SK-OV-3; SK-OV-3, Ovarian, 48 h) was 5.04 µM. For the same compound, the TGI (HCT-15; HCT-15, Colon, 48 h) was 5.98 µM, the GI50 (HCT-15; Homo sapiens, HCT-15, 48 h) was 1880 nM and the CC50 (HCT-15; Homo sapiens, HCT-15, 48 h) was 41.3 µM. The GI50 (UO-31; Homo sapiens, UO-31, 48 h) was 600 nM, the CC50 (UO-31; Homo sapiens, UO-31, 48 h) was 4.48 µM and the TGI (UO-31; UO-31, Renal, 48 h) was 1.85 µM. The GI50 (SK-MEL-2; Homo sapiens, SK-MEL-2, 48 h) was 480 nM, the CC50 (SK-MEL-2; Homo sapiens, SK-MEL-2, 48 h) was 40.7 µM and the TGI (SK-MEL-2; SK-MEL-2, Melanoma, 48 h) was 8.22 µM. The GI50 (SK-MEL-5; Homo sapiens, SK-MEL-5, 48 h) was 1300 nM, the CC50 (SK-MEL-5; Homo sapiens, SK-MEL-5, 48 h) was 8.07 µM and the TGI (SK-MEL-5; SK-MEL-5, Melanoma, 48 h) was 3.24 µM.

`CC(=O)C=CSc1nc(N)nc2nc[nH]c12` [trans-AVTG, 6-(2-acetylvinylthio) guanine] gave a GI50 (MDA-N) of 1280 nM, a TGI (MDA-N) of 10.3 µM and a GI50 (NCI-H23) of 3050 nM. For the same compound, the TGI (NCI-H23) was 16.3 µM, the GI50 (MDA-MB-231/ATCC; MDA-MB-231/ATCC, Breast, 48 h) was 890 nM and the TGI (MDA-MB-231/ATCC; MDA-MB-231/ATCC, Breast, 48 h) was 23.6 µM. For the same compound, the CC50 (MDA-MB-231/ATCC; MDA-MB-231/ATCC, Breast, 48 h) was over 100 µM, the GI50 (HS 578T; HS 578T, Breast) was 1780 nM and the TGI (HS 578T; HS 578T, Breast) was 26.9 µM. For the same compound, the CC50 (HS 578T; HS 578T, Breast) was over 100 µM, the GI50 (OVCAR-4 [3]; OVCAR-4, Ovarian, 48 h) was 2460 nM and the TGI (OVCAR-4 [3]; OVCAR-4, Ovarian, 48 h) was 17.0 µM. For the same compound, the CC50 (OVCAR-4 [3]; OVCAR-4, Ovarian, 48 h) was 45.1 µM, the GI50 (OVCAR-8; OVCAR-8, Ovarian, 48 h) was 550 nM and the TGI (OVCAR-8; OVCAR-8, Ovarian, 48 h) was over 100 µM. For the same compound, the CC50 (OVCAR-8; OVCAR-8, Ovarian, 48 h) was over 100 µM, the GI50 (SK-OV-3; SK-OV-3, Ovarian, 48 h) was 240 nM and the TGI (SK-OV-3; SK-OV-3, Ovarian, 48 h) was 0.78 µM. The CC50 (SK-OV-3; SK-OV-3, Ovarian, 48 h) was over 100 µM, the GI50 (HCT-15; HCT-15, Colon, 48 h) was 1730 nM and the TGI (HCT-15; HCT-15, Colon, 48 h) was 19.4 µM. It also gave a CC50 (HCT-15; HCT-15, Colon, 48 h) of over 100 µM, a GI50 (UO-31; UO-31, Renal, 48 h) of 620 nM and a TGI (UO-31; UO-31, Renal, 48 h) of 11.9 µM. For the same compound, the CC50 (UO-31; UO-31, Renal, 48 h) was 39.1 µM, the GI50 (SK-MEL-2; SK-MEL-2, Melanoma, 48 h) was 1020 nM and the TGI (SK-MEL-2; SK-MEL-2, Melanoma, 48 h) was 15.5 µM. It also gave a CC50 (SK-MEL-2; SK-MEL-2, Melanoma, 48 h) of 98.7 µM, a GI50 (SK-MEL-5; SK-MEL-5, Melanoma, 48 h) of 1680 nM and a TGI (SK-MEL-5; SK-MEL-5, Melanoma, 48 h) of 8.10 µM. For the same compound, the CC50 (SK-MEL-5; SK-MEL-5, Melanoma, 48 h) was 41.7 µM.
